In patent US9365489B2, “Nitrooxy alkanoic acids and derivatives thereof in feed for reducing methane emission in ruminants, and/or to improve ruminant performance” (priority 2009, dated 2016):

Experiments:
[1] = test system: methanogenesis in rumen liquor; assay: In vitro test for methane production (modified Hohenheim Forage value Test); conditions: 8 h, 39° C., average of two experiments, vs control
Experimental: A modified version of the “Hohenheim Forage value Test (HFT)” was used for testing the effect of specific compounds on the rumen functions mimicked by this in-vitro system.
Feed is given into a syringe with a composition of rumen liquor and an appropriate mixture of buffers. The solution is incubated at 39° C. After 8 hours the quantity (and composition) of methane produced is measured and put into a formula for conversion.
• 6.2 g potassium dihydrogen phosphate (KH2PO4) • 0.6 g magnesium sulfate heptahydrate (MgSO4*7H2O) • 9 ml concentrated phosphoric acid (1 mol/l) • dissolved in distilled water to 1 l (pH about 1.6) Buffer Solution: • 35.0 g sodium hydrogen carbonate (NaHCO3) • 4.0 g ammonium hydrogen carbonate ((NH4)HCO3) • dissolved in distilled water to 1 l Trace Element Solution: • 13.2 g calcium chloride dihydrate (CaCl2*2H2O) • 10.0 g manganese(II) chloride tetrahydrate (MnCl2*4H2O) • 1.0 g cobalt(II) chloride hexahydrate (CoCl2*6H2O) • 8.0 g iron(III) chloride (FeCl3*6H2O) • dissolved in distilled water to 100 ml Sodium Salt Solution: • 100 mg sodium salt • dissolved in distilled water to 100 ml Reduction Solution: • first 3 ml sodium hydroxide (c=1 mol/l), then 427.5 mg sodium sulfide hydrate (Na2S*H2O) are added to 71.25 ml H2O • solution must be prepared shortly before it is added to the medium solution Procedure: Sample Weighing: • The feed stuff is sieved to 1 mm—usually TMR (44% concentrate, 6% hay, 37% maize silage and 13% grass silage)—and weighed exactly into 64 syringes. 4 of these syringes are the substrate controls, which display the gas production without the effect of the tested compounds. 4 other syringes are positive control, in which bromoethane sulfonate has been added to 0.1 mM. When needed, 4 syringes contain a carrier control (if the test compounds need a carrier). The remaining syringes contain the test substances, by groups of 4 syringes. Preparation of the Medium Solution:
The components are mixed in a Woulff bottle in following order: • 711 ml water • 0.18 ml trace element solution • 355.5 ml buffer solution • 355.5 ml mass element solution • The completed solution is warmed up to 39° C. followed by the addition of 1.83 ml sodium salt solution and the addition of reduction solution at 36° C. The rumen liquor is added, when the indicator turns colourless. Extraction of the Rumen Liquor: • 750 ml of rumen liquor are added to approximately 1,400 ml of medium solution under continued agitation and CO2-gassing. Filling the Syringes, Incubation and Determining Gas Volumes and VFA Values: • The diluted rumen fluid (24 ml) is added to the glass syringe. The syringes are then incubated for 8 hours at 39° C. under gentle agitation. After 8 hours, the volume of gas produced is measured, and the percentage of methane in the gas phase is determined by gas chromatography. Results
The food fermented was artificial TMR (44% concentrate, 6% hay, 37% maize silage and 13% grass silage). The compounds produced as described in examples 3 to 20 were added to the fermentation syringes to a concentration of 2 to 0.01% of dry matter (DM).

[2] = Stability of the isolated compound (1H NMR); type: physicochemical; conditions: for degradation on storage: after 1 week at room temperature, repurified compound; for degradation on drying (1H NMR): dried at 60° C. under reduced pressure for 18 hours
Experimental: The final compound was dried at 60° C. under reduced pressure for 18 hours. […] The degraded compound was adsorbed on silica gel and purified by flash chromatography [Biotage®, dichloromethane/methanol 100/0→98/2 (15CV), 98/2 (4CV)] affording compound 3 as a light yellow liquid (0.59 g, yield=33%).
The final compound was dried at 60° C. under reduced pressure for 18 hours. […] The degraded compound was adsorbed on silica gel and purified by flash chromatography [Biotage®, dichloromethane/methanol 100/0→98/2 (12CV), 98/2 (6CV)] affording compound 3 as a white solid (0.90 g, yield=70%).

Structure (SMILES)	effect on methanogenesis (%) ([1]; 0.01% DM)	effect on methanogenesis (%) ([1]; 0.1% DM)	effect on methanogenesis (%) ([1]; 1% DM)	degradation on storage [2]	degradation on drying (1H NMR) [2]	effect on methanogenesis (%) ([1]; 0.5% DM)	effect on methanogenesis (%) ([1]; 2% DM)	effect on methanogenesis (%) ([1]; 0.05% DM)	effect on methanogenesis (%) ([1]; 0.25% DM)
CNC(=O)CCCCO[N+](=O)[O-] [drawing 37]	−2	−100	−98						
CNC(=O)CCCCO[N+](=O)[O-] [Example 18, 5-Nitrooxy-pentanoic acid methylamide]				No further degradation was observed	Degradation was observed				
NC(=O)CCCCO[N+](=O)[O-] [drawing 36]	−2	−99	−98						
O=[N+]([O-])[O-].[Na+] [Na NO3, reference compound]						−2	−23		
O=C(O)CCO[N+](=O)[O-]	−8	−100				−100	−100	−98	
CCOC(=O)CC(C)O[N+](=O)[O-] (stereo not shown)						−100	−100	−17	
CCOC(=O)CCO[N+](=O)[O-] [drawing 19]		−63	−100			−100	−100	−18	−100
CCOC(=O)CCCCCCCO[N+](=O)[O-]	−12	−99						−96	
CCOC(=O)CCCCCO[N+](=O)[O-]	−3	−100						−78	
CCOC(=O)C(C)O[N+](=O)[O-] (stereo not shown)						−33	−100	−2	
CCOC(=O)CCCO[N+](=O)[O-]	−6	−82				−100	−100	−55	
COC(=O)CCO[N+](=O)[O-]	−12					−100	−100	−64	
CC(C)(CO[N+](=O)[O-])C(=O)O						−49	−100		
O=C(O)CCCCO[N+](=O)[O-]	−23	−100				−100	−100	−100	
CCOC(=O)CCCCCCCCCCO[N+](=O)[O-]	−8	−99						−48	
NC(=O)CCCCO[N+](=O)[O-] [Example 20, 5-Nitrooxy-pentanoic acid amide]				No further degradation was observed	Degradation was observed				
O=C(O)CCCCCCCO[N+](=O)[O-]	−7	−100						−76	
O=C(O)CCCO[N+](=O)[O-]							2		
O=C(O)CCCCCO[N+](=O)[O-]	−10	−100						−99	
CCOC(=O)CCCCO[N+](=O)[O-]	−28					−100	−100	−87	
O=C(O)CCCCCCCCCCO[N+](=O)[O-]	−13	−99						−52	
CCOC(=O)CO[N+](=O)[O-]		−1						−1	
CCOC(=O)C1CCC(O[N+](=O)[O-])CC1 (stereo not shown)		−88	−98					−2	
